Assay results as given in paper PMC7660103, “Discovery of Novel 3-Cyanopyridines as Survivin Modulators and Apoptosis Inducers” (Molecules, 2020).

Legend:
survivin = biological target: T1, survivin (Homo sapiens, UniProt O15392); assay: Western blotting of survivin in MDA-MB-231 cells; format: cell-based; details: for survivin expression (Western blot, in words): MDA-MB-231, 1, 5 and 10 µM
T1 construct: Western blotting analysis in MDA-MB-231cells treated with different concentrations of both compounds; endogenous in cells; host or cells: MDA-MB-231
Protocol: (§1) The ability of the 2-oxo-3-cyano pyridines 5c and 5e to cause an inhibition of survivin was evaluated by the use of Western blotting analysis in MDA-MB-231cells treated with different concentrations of both compounds (1, 5, and 10 µM). […] Furthermore, to test the effect of these compounds on some other IAP family proteins, the Western plot of Livin, XIAP, and C-IAP1 proteins was performed (Figure 6). […] The Supplementary Material Figures S40 and S41 contain western blotting analysis for 5c and 5e.
(§2) MDA-MB-231 cancer cells were incubated with 5c and 5e at different concentrations (1, 5, and 10 µM) for 48 h. Afterwards, the medium was detached, and the cells were washed using PBS (10 mmol/L, pH 7.4). Then, the cells were incubated on cold lysis buffer (50 mmol/L Tris–HCl, 150 mmol/L NaCl, 1 mmol/L EGTA, 1 mmol/L EDTA, 20 mmol/L NaF, […], 0.5% NP40, 1% Triton X-100, 1 mmol/L PMSF (pH 7.4)) and a freshly added cocktail inhibitor (Inhibitor Cocktail Set III, Calbiochem, La Jolla, CA) above ice for 30 min. Then, MDA-MB-231 cells were collected and centrifuged at 12,000× g for 15 min.
(§3) XIAp, Survivin, Livin, and cIAP1anti-mouse, anti-rabbit secondary antibodies, and GAPDH were purchased from Sigma-Aldrich, whereas the gel was obtained from BioRad. Polyacrylamide gels were moved to a nitrocellulose membrane in order to block in buffer (7% nonfat dry milk/1% Tween 20; in 20 mmol/L TBS (pH 7.6)) for 1 h and incubated for 2 h at room temperature with the suitable primary antibody in blocking buffer or overnight at 4 °C; then, they were incubated with secondary antibody HRP conjugate. Finally, the blots analysis was done using the imaging system.

XIAP = assay: Western blotting of XIAP in MDA-MB-231 cells; format: cell-based, human; details: for XIAP protein level (Western blot, in words): MDA-MB-231, 1, 5 and 10 µM
Protocol: as §1, §2, §3

[1] = test system: breast cancer (MDA-MB-231) cells; assay: SRB cytotoxicity assay, MDA-MB-231; format: cell-based, human; details: for IC50: Homo sapiens, MDA-MB-231, 72 h, SRB assay, 72 h, mean ± SD of three experiments; for Selectivity Index MDA-MB-231: SI = IC50 on WI-38/IC50 on MDA-MB-231
Protocol: (§4) In the present work, sulforhodamine B (SRB) colorimetric assay was done to evaluate the cytotoxic activity of the synthesized 3-cyano pyridines 4a–4e, 5a–5e, and 6a–6e on three human cancer cell lines: prostate carcinoma (PC-3), breast cancer (MDA-MB-231) and hepatocellular carcinoma (HepG2) cell lines. 5-FU was used as a standard drug for comparison.
(§5) Human cancer cells were obtained from Nawah Scientific Inc. (Mokatam, Cairo, Egypt). Cells were maintained in DMEM media containing […] streptomycin, 100 units/mL penicillin, and 10% heat-inactivated fetal bovine serum in humified, 5% (v/v) CO2 atmosphere at 37 °C.
(§6) Cell viability was estimated using the SRB assay. Aliquots of 100 µL cell suspension (5 × 10^3 cells) in 96-well plates were incubated in complete media for 24 h. Cells were treated with a second aliquot of 100 µL media containing various concentrations of the tested compounds (0.01, 0.1, 1, 10, and 100 μM). After 72 h, cells were fixed by replacing media with 15 µL of 10% TCA and then incubated at 4 °C for 1 h. After that, TCA solution was removed, and the cells were washed 5 times with distilled water. Aliquots of 70 µL SRB solution (0.4% w/v) were added and incubated in a dark place at room temperature for 10 min. Plates were washed 3 times with 1% acetic acid and allowed to air dry overnight. Then, 150 µL of TRIS (10 mM) was added to dissolve protein-bound SRB stain. The absorbance was measured at 540 nm using BMG LABTECH®-FLUO star Omega microplate reader (Ortenberg, Germany).

[2] = test system: hepatocellular carcinoma (HepG2) cells; assay: SRB cytotoxicity assay, HepG2; format: cell-based, human; details: for IC50: Homo sapiens, HepG2, 72 h, SRB assay, 72 h, mean ± SD of three experiments; for Selectivity Index HepG2: SI = IC50 on WI-38/IC50 on HepG2
Protocol: as §4, §5, §6

MDA-MB-231 cells = assay: Cell cycle analysis by flow cytometry; format: cell-based, human; details: MDA-MB-231, IC50 concentration, 24 h; for %Pre-G1: control 1.87; for %G2-M: control 4.38; for %S: control 35.21; for %G0-G1: control 60.41
Source text: Survivin has been recognized to play dual roles in stimulating cell-cycle progression and in obstructing apoptosis. Additionally, survivin is known to be expressed mainly in the G2/M phase of the cell cycle. Therefore, it was significant to examine the ability of our promising compounds 5c and 5e to induce cell cycle arrest. […] As shown in Figure 2 and Table 3, both 5c and 5e caused an increase in the number of cells in the G2/M phase by 4.92 and 5.74 folds, respectively, compared to the control cells. At the same time, a decrease in the DNA content in the G0/G1 phase, and a slight decrease in the S phase cells were observed. […] Supplementary Material Figures S37–S39 contain the cell cycle analysis for control and compounds 5c and 5e.
After that, cells were collected by trypsin and washed in saline buffered with phosphate. Then, they were fixed using ice-cold alcohol. Afterwards, cells were stained by a Cycle TESTTM PLUS DNA Reagent Kit (BD Biosciences, San Jose, CA, USA) according to the manufacturer’s directions. The distribution of the cells in the cell cycle was calculated using a FACS Calibur flow cytometer (BD Biosciences, San Jose, CA, USA).

[3] = cytotoxicity compared with 5-FU

T1 sequence (O15392 whole entry): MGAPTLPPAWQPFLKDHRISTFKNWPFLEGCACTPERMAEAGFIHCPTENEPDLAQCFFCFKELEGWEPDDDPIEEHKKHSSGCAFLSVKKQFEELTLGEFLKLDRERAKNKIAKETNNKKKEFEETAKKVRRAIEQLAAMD

| SMILES | Survivin band % (survivin; MDA-MB-231, 1µM) [%] | Survivin band Area (survivin; MDA-MB-231, 1µM) | Survivin band Height (survivin; MDA-MB-231, 1µM) | Survivin band Width (survivin; MDA-MB-231, 1µM) | Survivin band % (survivin; MDA-MB-231, 5µM) [%] | Survivin band Area (survivin; MDA-MB-231, 5µM) | Survivin band Height (survivin; MDA-MB-231, 5µM) | Survivin band Width (survivin; MDA-MB-231, 5µM) | Survivin band % (survivin; MDA-MB-231, 10µM) [%] | Survivin band Area (survivin; MDA-MB-231, 10µM) | Survivin band Height (survivin; MDA-MB-231, 10µM) | Survivin band Width (survivin; MDA-MB-231, 10µM) | survivin expression (Western blot, in words) (survivin) | XIAP band % (XIAP; MDA-MB-231, 1µM) [%] | XIAP band Area (XIAP; MDA-MB-231, 1µM) | XIAP band Height (XIAP; MDA-MB-231, 1µM) | XIAP band Width (XIAP; MDA-MB-231, 1µM) | XIAP band % (XIAP; MDA-MB-231, 5µM) [%] | XIAP band Area (XIAP; MDA-MB-231, 5µM) | XIAP band Height (XIAP; MDA-MB-231, 5µM) | other results |
| --- | --- | --- | --- | --- | --- | --- | --- | --- | --- | --- | --- | --- | --- | --- | --- | --- | --- | --- | --- | --- | --- |
| COc1ccc(-c2cc(-c3ccc(OCc4ccc(F)cc4)cc3)[nH]c(=O)c2C#N)cc1 [Compound 5e, 6-(4-((4-Fluorobenzyl)oxy)phenyl)-4-(4-methoxyphenyl)-2-oxo-1,2-dihydropyridine-3-carbonitrile] | 31.4 | 1368 | 120 | 22 | 25 | 1079 | 108 | 19 | 19.1 | 1062 | 105 | 18 | remarkable inhibition of survivin expression | 15.4 | 841 | 80 | 22 | 8.6 | 287 | 41 | XIAP band Width (XIAP; MDA-MB-231, 5µM): 17; XIAP band % (XIAP; MDA-MB-231, 10µM): 4.7%; XIAP band Area (XIAP; MDA-MB-231, 10µM): 260; XIAP band Height (XIAP; MDA-MB-231, 10µM): 28; XIAP band Width (XIAP; MDA-MB-231, 10µM): 13; XIAP protein level (Western blot, in words) (XIAP): decreased the levels of these proteins; IC50 [1]: 3.59 ± 0.42 µM; Selectivity Index MDA-MB-231 [1]: 28.57; activity relative to 5-FU, MDA-MB-231 [1, 3]: 2.6 fold; IC50 [2]: 6.01 ± 0.53 µM; Selectivity Index HepG2 [2]: 17.06; activity relative to 5-FU, HepG2 [2, 3]: comparable to 5-FU; increase in the number of cells in the G2/M phase compared to control (MDA-MB-231 cells): 5.74 fold; %Pre-G1 (MDA-MB-231 cells): 19.47%; %G2-M (MDA-MB-231 cells): 25.16%; %S (MDA-MB-231 cells): 32.48%; %G0-G1 (MDA-MB-231 cells): 42.36% |
| N#Cc1c(-c2ccc(Cl)cc2)cc(-c2ccc(OCc3ccc(F)cc3)cc2)[nH]c1=O [Compound 5c, 4-(4-Chlorophenyl)-6-(4-((4-fluorobenzyl)oxy)phenyl)-2-oxo-1,2-dihydropyridine-3-carbonitrile] | 38.3 | 2261 | 156 | 26 | 25.9 | 1674 | 137 | 16 | 15.6 | 1028 | 121 | 13 | remarkable inhibition of survivin expression | 16.3 | 970 | 99 | 22 | 15.1 | 921 | 88 | XIAP band Width (XIAP; MDA-MB-231, 5µM): 19; XIAP band % (XIAP; MDA-MB-231, 10µM): 14.2%; XIAP band Area (XIAP; MDA-MB-231, 10µM): 853; XIAP band Height (XIAP; MDA-MB-231, 10µM): 82; XIAP band Width (XIAP; MDA-MB-231, 10µM): 19; XIAP protein level (Western blot, in words) (XIAP): decreased the levels of these proteins; IC50 [1]: 20 ± 0.17 µM; Selectivity Index MDA-MB-231 [1]: 4.56; IC50 [2]: 15 ± 0.64 µM; Selectivity Index HepG2 [2]: 6.08; increase in the number of cells in the G2/M phase compared to control (MDA-MB-231 cells): 4.92 fold; %Pre-G1 (MDA-MB-231 cells): 16.32%; %G2-M (MDA-MB-231 cells): 21.57%; %S (MDA-MB-231 cells): 33.16%; %G0-G1 (MDA-MB-231 cells): 45.27% |
